Test results published in patent publication US11452710B1, “Micronutrient and plant extract composition and method of improving bone health” (priority 2022, dated 2022).

Tested on: alkaline phosphatase (ALP)
Conditions: 0.1-5 μg/ml, 48 h at 37° C., n=4; compared to the control and to the most stimulating agents (boron line 10, MSM line 15)
Method: In vitro differentiation (alkaline phosphatase activity (ALP) and core-binding factor alpha 1 (Cbfa-1) as a marker) assay: Human osteoblasts (1×10^5 cells/well of a 96-well plate) in a 100 μl cell culture medium were exposed to select micronutrients and plant extracts (0.1-5 μg/ml) for 48 h at 37° C., and lysed with assay buffer. Subsequently, 5 mM p-nitrophenyl phosphate (pNPP), as a phosphate substrate for alkaline phosphates, was added into all experimental wells for 1 h, followed by a stop solution. The absorbance was measured at 450 nm within 5 min. using a microplate reader.

| Molecule | alkaline phosphatase (ALP) activity level in human osteoblasts |
| --- | --- |
| CS(C)(=O)=O [MSM, methylsulfonylmethane] | most stimulating agents |
| boron | most stimulating agents |
